Measurements taken from patent US9169246B2, “Pyrazoloquinolinone derivatives, preparation thereof and therapeutic use thereof” (SANOFI, priority 2011, dated 2015).

Test system: HUVEC cells
Assay: Test of in vitro proliferation of HUVEC cells induced with FGF-2
Type: cell-based
Settings: Homo sapiens, FGF-2 1 ng/ml induced proliferation, ATP luminescence, head says M, cells print nM
Experimental: The compounds according to the invention underwent biochemical studies in order to determine their capacity to inhibit the enzyme methionine-aminopeptidase2 (enzymatic test on isolated enzyme). […] Consequently, the compounds of the invention that show good activity in the MetAP2 enzymatic test were evaluated in a test of in vitro proliferation of HUVEC cells induced with FGF-2. […] After incubation for 48 hours, the medium is aspirated and replaced with the deprivation medium RPMI1640 mentioned previously. A second stimulation is then performed. The cells are again incubated at 37° C. in the presence of CO2. After incubation for 72 hours, the medium is again aspirated and 100 μl of Cell Titer-GLOTM Luminescent Cell Viability Assay (Promega, G7571) are added over 10 minutes. The amount of ATP present in the cells, measured using a luminometer, is proportional to the number cells per well corresponding to the cell proliferation.

Row | SMILES | IC50
1 | O=c1c2cn[nH]c2c2ccc(-c3ccccc3F)cc2n1CC(F)(F)F [Compound 3, 7-(2-fluorophenyl)-5-(2,2,2-trifluoroethyl)-1,5-dihydro-4H-pyrazolo[4,3-c]quinolin-4-one] | 660 nM
2 | Cc1cc(-c2ccc3c4[nH]ncc4c(=O)n(CC(F)(F)F)c3c2)ccn1 [Compound 186, 7-(2-methylpyrid-4-yl)-5-(2,2,2-trifluoroethyl)-1,5-dihydro-4H-pyrazolo[4,3-c]quinolin-4-one] | 360 nM
